Earlier results, collected in US6923993B2, “Process of isolating extract from the Euphorbia obesa plant and methods for using the same” (priority 2001, dated 2005).

Tests used:
[1] = doses of 0.5 to 1 mg
skin of mice = conditions: topically applied
myelocytic leukemia = conditions: intravenous 1 mg; patients refractory to cytosine arabinoside, retinoic acid and other antileukemic drugs
[2] = system: HL-60 human promyelocytic leukemia cells; conditions: in vitro
[3] = system: white blood cell (WBC) count; conditions: intravenous; patients with low WBC after cytotoxic chemotherapy

CCCCCCCCCCCCCC(=O)O[C@@H]1[C@@H](C)[C@@]2(O)[C@@H](C=C(CO)C[C@]3(O)C(=O)C(C)=C[C@@H]23)[C@H]2C(C)(C)[C@]12OC(C)=O [TPA, 12-O-tetradecanoyl-13-phorbol acetate]
toxicity in vivo [1]: toxic effects | effect on mouse skin (skin of mice): tumor promoter | activity in myelocytic leukemia patients (myelocytic leukemia): pharmacological activity | differentiation and DNA synthesis of HL-60 cells [2]: stimulate differentiation and inhibit DNA synthesis | WBC count and neutrophils in the blood [3]: increase in WBC count and neutrophilia
